Results reported in paper PMC10010643 (Cancer Chemotherapy and Pharmacology, 2023).
Values joined by “and” are separate entries in the source; they are usually repeats but may differ in a detail not shown here. Identical values can stand only once. “Also recorded” adds a separate entry of the source.

Test: Safety and tolerability, Part A single ascending-dose phase in healthy participants
Assay type: in vivo, human
Procedure: A further two cohorts were recruited. […] Each individual participated in one treatment period only, with the exception of the food-effect cohort (cohort A3) in which there were two treatment periods separated by at least 7 days washout. Participants resided at the Clinical Research Unit (CRU) from 1 day ahead of dosing (day − 1) to day 3 and returned for a follow-up visit 5–7 days after their final dose. For all cohorts, doses were administered in the fasted state in the morning of day 1 of Treatment Period 1. In the food-effect cohort, doses were given 30 min after the start of a high-fat breakfast (973 calories total: approximately 150 protein calories, 250 carbohydrate calories, and 500–600 fat calories) on day 1 of Treatment Period 2. For cohorts A1 to A5 in Treatment Period 1, dosing occurred such that one pair (one active and one placebo) were dosed at least 24 h before the remaining participants. Continuation to dose those who remained was at the investigator’s discretion. Escalating doses were administered following satisfactory sponsor and investigator review of the safety and tolerability data (up to 48 h post-final dose) and PK data (up to 24 h post-final dose) from the lower dose levels.
Safety and tolerability assessments included adverse event (AE) monitoring, physical examinations, laboratory assessments (hematology, clinical chemistry, and urinalysis), vital signs (blood pressure, pulse rate, and body temperature) and ECG.
No formal statistical assessment was performed for the safety analysis.

[1] = single and multiple doses, Parts A and B
[2] = single dose 5 mg (1 × 5 mg), fasted
[3] = single dose 20 mg (4 × 5 mg), fasted
[4] = single dose 50 mg (1 × 50 mg), fasted
[5] = single dose 50 mg (1 × 50 mg), fed
[6] = single dose 50 mg (10 × 5 mg), fasted
[7] = single dose 100 mg (2 × 50 mg), fasted
[8] = single dose 200 mg (4 × 50 mg), fasted
[9] = single dose 400 mg (8 × 50 mg), fasted
[10] = treatment-emergent period, Parts A and B

OC[C@H]1O[C@H](Sc2cncc(Br)c2)[C@H](O)[C@@H](n2cc(-c3cc(F)c(F)c(F)c3)nn2)[C@H]1O [GB1211]
TEAE Pain, participants (Part A 100 mg, fasted): 0 n (%)
TEAE Rash, participants (Part A 100 mg, fasted): 0 n (%)
TEAE Respiratory, thoracic and mediastinal disorders, participants (Part A 100 mg, fasted): 0 n (%)
TEAE Skin and subcutaneous tissue disorders, participants (Part A 100 mg, fasted): 0 n (%)
TEAE Wound, participants (Part A 100 mg, fasted): 0 n (%)
TEAE Back pain, participants (Part A 200 mg, fasted): 0 n (%)
TEAE Constipation, participants (Part A 200 mg, fasted): 0 n (%)
TEAE Cough, participants (Part A 200 mg, fasted): 0 n (%)
TEAE Decreased appetite, participants (Part A 200 mg, fasted): 0 n (%)
TEAE Diarrhea, participants (Part A 200 mg, fasted): 0 n (%)
TEAE Dry mouth, participants (Part A 200 mg, fasted): 0 n (%)
TEAE Dry skin, participants (Part A 200 mg, fasted): 0 n (%)
TEAE Dyspepsia, participants (Part A 200 mg, fasted): 0 n (%)
TEAE Gastrointestinal disorders, participants (Part A 200 mg, fasted): 0 n (%)
TEAE General disorders and administration site conditions, participants (Part A 200 mg, fasted): 0 n (%)
TEAE Headache, participants (Part A 200 mg, fasted): 0 n (%)
TEAE Infections and infestations, participants (Part A 200 mg, fasted): 0 n (%)
TEAE Injury, poisoning and procedural complications, participants (Part A 200 mg, fasted): 0 n (%)
TEAE Medical device site reaction, participants (Part A 200 mg, fasted): 0 n (%)
TEAE Metabolism and nutrition disorders, participants (Part A 200 mg, fasted): 0 n (%)
TEAE Musculoskeletal and connective tissue disorders, participants (Part A 200 mg, fasted): 0 n (%)
TEAE Nasopharyngitis, participants (Part A 200 mg, fasted): 0 n (%)
TEAE Nervous system disorders, participants (Part A 200 mg, fasted): 0 n (%)
TEAE Pain, participants (Part A 200 mg, fasted): 0 n (%)
TEAE Rash, participants (Part A 200 mg, fasted): 0 n (%)
TEAE Respiratory, thoracic and mediastinal disorders, participants (Part A 200 mg, fasted): 0 n (%)
TEAE Skin and subcutaneous tissue disorders, participants (Part A 200 mg, fasted): 0 n (%)
TEAE Wound, participants (Part A 200 mg, fasted): 0 n (%)
TEAE Back pain, participants (Part A 400 mg, fasted): 0 n (%)
TEAE Constipation, participants (Part A 400 mg, fasted): 0 n (%)
TEAE Cough, participants (Part A 400 mg, fasted): 0 n (%)
TEAE Decreased appetite, participants (Part A 400 mg, fasted): 0 n (%)
TEAE Diarrhea, participants (Part A 400 mg, fasted): 0 n (%)
TEAE Dry mouth, participants (Part A 400 mg, fasted): 0 n (%)
TEAE Dry skin, participants (Part A 400 mg, fasted): 0 n (%)
TEAE Dyspepsia, participants (Part A 400 mg, fasted): 0 n (%)
TEAE Gastrointestinal disorders, participants (Part A 400 mg, fasted): 0 n (%)
TEAE General disorders and administration site conditions, participants (Part A 400 mg, fasted): 0 n (%)
TEAE Headache, participants (Part A 400 mg, fasted): 0 n (%)
TEAE Infections and infestations, participants (Part A 400 mg, fasted): 0 n (%)
TEAE Injury, poisoning and procedural complications, participants (Part A 400 mg, fasted): 0 n (%)
TEAE Medical device site reaction, participants (Part A 400 mg, fasted): 0 n (%)
TEAE Metabolism and nutrition disorders, participants (Part A 400 mg, fasted): 0 n (%)
TEAE Musculoskeletal and connective tissue disorders, participants (Part A 400 mg, fasted): 0 n (%)
TEAE Nasopharyngitis, participants (Part A 400 mg, fasted): 0 n (%)
TEAE Nervous system disorders, participants (Part A 400 mg, fasted): 0 n (%)
TEAE Pain, participants (Part A 400 mg, fasted): 0 n (%)
TEAE Rash, no. of AEs (Part A 400 mg, fasted): 1
TEAE Rash, participants (Part A 400 mg, fasted): 1 (16.7%) n (%)
TEAE Respiratory, thoracic and mediastinal disorders, participants (Part A 400 mg, fasted): 0 n (%)
TEAE Skin and subcutaneous tissue disorders, no. of AEs (Part A 400 mg, fasted): 1
TEAE Skin and subcutaneous tissue disorders, participants (Part A 400 mg, fasted): 1 (16.7%) n (%)
TEAE Wound, participants (Part A 400 mg, fasted): 0 n (%)
Number of TEAEs, GB1211 group (Part A, all GB1211 doses): 11
Participants with TEAEs, GB1211 group (Part A, all GB1211 doses): 8
Safety concerns [1]: No safety concerns were identified
Tolerability [1]: well tolerated
Number of TEAEs [2]: 4
Participants discontinued due to TEAEs [2]: 0 n (%)
Participants with SAEs [2]: 0 n (%)
Participants with TEAEs [2]: 3 (50.0) n (%) and 3 (50.0%) n (%)
Severity (all TEAEs): Mild [2]: 3 (50.0) n (%)
Severity (all TEAEs): Moderate [2]: 0 n (%)
Severity (all TEAEs): Severe [2]: 0 n (%)
Severity (all TEAEs): Total [2]: 3 (50.0) n (%)
Severity (possibly related to study treatment): Mild [2]: 1 (16.7) n (%)
Severity (possibly related to study treatment): Moderate [2]: 0 n (%)
Severity (possibly related to study treatment): Severe [2]: 0 n (%)
Severity (possibly related to study treatment): Total [2]: 1 (16.7) n (%)
Number of TEAEs [3]: 1
Participants discontinued due to TEAEs [3]: 0 n (%)
Participants with SAEs [3]: 0 n (%)
Participants with TEAEs [3]: 1 (16.7) n (%) and 1 (16.7%) n (%)
Severity (all TEAEs): Mild [3]: 1 (16.7) n (%)
Severity (all TEAEs): Moderate [3]: 0 n (%)
Severity (all TEAEs): Severe [3]: 0 n (%)
Severity (all TEAEs): Total [3]: 1 (16.7) n (%)
Severity (possibly related to study treatment): Mild [3]: 0 n (%)
Severity (possibly related to study treatment): Moderate [3]: 0 n (%)
Severity (possibly related to study treatment): Severe [3]: 0 n (%)
Severity (possibly related to study treatment): Total [3]: 0 n (%)
Number of TEAEs [4]: 1
Participants discontinued due to TEAEs [4]: 0 n (%)
Participants with SAEs [4]: 0 n (%)
Participants with TEAEs [4]: 1 (16.7) n (%) and 1 (16.7%) n (%)
Severity (all TEAEs): Mild [4]: 1 (16.7) n (%)
Severity (all TEAEs): Moderate [4]: 0 n (%)
Severity (all TEAEs): Severe [4]: 0 n (%)
Severity (all TEAEs): Total [4]: 1 (16.7) n (%)
Severity (possibly related to study treatment): Mild [4]: 0 n (%)
Severity (possibly related to study treatment): Moderate [4]: 0 n (%)
Severity (possibly related to study treatment): Severe [4]: 0 n (%)
Severity (possibly related to study treatment): Total [4]: 0 n (%)
Number of TEAEs [5]: 1
Participants discontinued due to TEAEs [5]: 0 n (%)
Participants with SAEs [5]: 0 n (%)
Participants with TEAEs [5]: 1 (16.7) n (%) and 1 (16.7%) n (%)
Severity (all TEAEs): Mild [5]: 0 n (%)
Severity (all TEAEs): Moderate [5]: 1 n (%) and 1 (16.7) n (%)
Severity (all TEAEs): Severe [5]: 0 n (%)
Severity (all TEAEs): Total [5]: 1 (16.7) n (%)
Severity (possibly related to study treatment): Mild [5]: 0 n (%)
Severity (possibly related to study treatment): Moderate [5]: 0 n (%)
Severity (possibly related to study treatment): Severe [5]: 0 n (%)
Severity (possibly related to study treatment): Total [5]: 0 n (%)
Number of TEAEs [6]: 1
Participants discontinued due to TEAEs [6]: 0 n (%)
Participants with SAEs [6]: 0 n (%)
Participants with TEAEs [6]: 1 (16.7) n (%) and 1 (16.7%) n (%)
Severity (all TEAEs): Mild [6]: 1 (16.7) n (%)
Severity (all TEAEs): Moderate [6]: 0 n (%)
Severity (all TEAEs): Severe [6]: 0 n (%)
Severity (all TEAEs): Total [6]: 1 (16.7) n (%)
Severity (possibly related to study treatment): Mild [6]: 0 n (%)
Severity (possibly related to study treatment): Moderate [6]: 0 n (%)
Severity (possibly related to study treatment): Severe [6]: 0 n (%)
Severity (possibly related to study treatment): Total [6]: 0 n (%)
Number of TEAEs [7]: 2
Participants discontinued due to TEAEs [7]: 0 n (%)
Participants with SAEs [7]: 0 n (%)
Participants with TEAEs [7]: 1 (16.7) n (%) and 1 (16.7%) n (%)
Severity (all TEAEs): Mild [7]: 1 (16.7) n (%)
Severity (all TEAEs): Moderate [7]: 0 n (%)
Severity (all TEAEs): Severe [7]: 0 n (%)
Severity (all TEAEs): Total [7]: 1 (16.7) n (%)
Severity (possibly related to study treatment): Mild [7]: 1 (16.7) n (%)
Severity (possibly related to study treatment): Moderate [7]: 0 n (%)
Severity (possibly related to study treatment): Severe [7]: 0 n (%)
Severity (possibly related to study treatment): Total [7]: 1 (16.7) n (%)
Number of TEAEs [8]: 0
Participants discontinued due to TEAEs [8]: 0 n (%)
Participants with SAEs [8]: 0 n (%)
Participants with TEAEs [8]: 0 n (%)
Severity (all TEAEs): Mild [8]: 0 n (%)
Severity (all TEAEs): Moderate [8]: 0 n (%)
Severity (all TEAEs): Severe [8]: 0 n (%)
Severity (all TEAEs): Total [8]: 0 n (%)
Severity (possibly related to study treatment): Mild [8]: 0 n (%)
Severity (possibly related to study treatment): Moderate [8]: 0 n (%)
Severity (possibly related to study treatment): Severe [8]: 0 n (%)
Severity (possibly related to study treatment): Total [8]: 0 n (%)
Number of TEAEs [9]: 1
Participants discontinued due to TEAEs [9]: 0 n (%)
Participants with SAEs [9]: 0 n (%)
Participants with TEAEs [9]: 1 (16.7) n (%) and 1 (16.7%) n (%)
Severity (all TEAEs): Mild [9]: 1 (16.7) n (%)
Severity (all TEAEs): Moderate [9]: 0 n (%)
Severity (all TEAEs): Severe [9]: 0 n (%)
Severity (all TEAEs): Total [9]: 1 (16.7) n (%)
Severity (possibly related to study treatment): Mild [9]: 1 (16.7) n (%)
Severity (possibly related to study treatment): Moderate [9]: 0 n (%)
Severity (possibly related to study treatment): Severe [9]: 0 n (%)
Severity (possibly related to study treatment): Total [9]: 1 (16.7) n (%)
Clinical laboratory evaluation, vital signs, ECG or physical examination (single or multiple GB1211 doses): no treatment- or dose-related trend; also recorded: no clinically significant finding
Serious AEs or severe AEs [10]: no severe TEAEs or serious AEs reported
Study discontinuations due to AEs [10]: no study discontinuations due to AEs
